# From US20260285850A1, “SUBSTITUTED OXAZOLIDINONES AND IMIDAZOLINONES AS HERBICIDES” (FMC CORPORATION, priority 2023, published 2026)
# Columns and labels:
# Assay type in all cases: in vivo
# [1] = system: barnyardgrass (Echinochloa crus-galli); experiment: Test A preemergence soil spray, visual injury rating 0-100; settings: 10 days
# Outline: (§1)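 Compound in a non-phytotoxic, surfactant-containing solvent is applied either as a directed soil spray before seedlings emerge or onto emerged plants 2-10 cm tall; pots hold a loam-sand blend. Plants grow 10 days under greenhouse conditions and are rated by eye against untreated controls (0 no effect, 100 complete control).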
# [2] = system: blackgrass (Alopecurus myosuroides); experiment: as above; settings: 10 days
# Outline: as §1
# corn (Zea mays) [3] = experiment: as above; settings: 10 days
# Outline: as §1
# [4] = system: green foxtail (Setaria viridis); experiment: as above; settings: 10 days
# Outline: as §1
# kochia (Bassia scoparia) [5] = experiment: as above; settings: 10 days
# Outline: as §1
# [6] = system: oat, wild (wild oat, Avena fatua); experiment: as above; settings: 10 days
# Outline: as §1
# [7] = system: palmer (palmer amaranth, palmer pigweed, Amaranthus palmeri); experiment: as above; settings: 10 days
# Outline: as §1
# [8] = system: ragweed (common ragweed, Ambrosia artemisiifolia); experiment: as above; settings: 10 days
# Outline: as §1
# [9] = system: ryegrass, Italian (italian ryegrass, Lolium multiflorum); experiment: as above; settings: 10 days
# Outline: as §1
# soybean (Glycine max) [10] = experiment: as above; settings: 10 days
# Outline: as §1
# [11] = system: wheat (Triticum aestivum); experiment: as above; settings: 10 days
# Outline: as §1
# [12] = system: barnyardgrass (Echinochloa crus-galli); experiment: Test A postemergence application, visual injury rating 0-100
# Outline: as §1
# [13] = system: blackgrass (Alopecurus myosuroides); experiment: as above
# Outline: as §1
# corn (Zea mays) [14] = experiment: as above
# Outline: as §1
# [15] = system: galium (catchweed bedstraw, Galium aparine); experiment: as above
# Outline: as §1
# [16] = system: green foxtail (Setaria viridis); experiment: as above
# Outline: as §1
# [17] = system: horseweed (Erigeron canadensis); experiment: as above
# Outline: as §1
# kochia (Bassia scoparia) [18] = experiment: as above
# Outline: as §1
# [19] = system: oat, wild (wild oat, Avena fatua); experiment: as above
# Outline: as §1
# [20] = system: palmer (palmer amaranth, palmer pigweed, Amaranthus palmeri); experiment: as above
# Outline: as §1
# [21] = system: ragweed (common ragweed, Ambrosia artemisiifolia); experiment: as above
# Outline: as §1
# [22] = system: ryegrass, Italian (italian ryegrass, Lolium multiflorum); experiment: as above
# Outline: as §1
# soybean (Glycine max) [23] = experiment: as above
# Outline: as §1
# [24] = system: wheat (Triticum aestivum); experiment: as above
# Outline: as §1
# [25] = system: barnyardgrass (Echinochloa crusgalli); experiment: Test B flooded paddy test, visual plant response rating 0-100; settings: 250 g ai/ha, Flood, applied to paddy water, evaluated after 13 days
# Outline: (§2)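 Each species was raised to two leaves before flooding to a 3 cm depth and dosing the water with compound. Injury was assessed by eye after 13 days under greenhouse conditions.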
# [26] = system: ducksalad (Heteranthera limosa); experiment: as above; settings: 250 g ai/ha, Flood, applied to paddy water, evaluated after 13 days
# Outline: as §2
# rice (Oryza sativa) = experiment: as above; settings: 250 g ai/ha, Flood, applied to paddy water, evaluated after 13 days
# Outline: as §2
# [27] = system: sedge, umbrella (small-flower umbrella sedge, Cyperus difformis); experiment: as above; settings: 250 g ai/ha, Flood, applied to paddy water, evaluated after 13 days
# Outline: as §2
# [28] = 62 g ai/ha, 0 = no effect, 100 = complete control
# [29] = 62 g ai/ha, postemergence, 10 days, 0 = no effect, 100 = complete control
# [30] = Postemergence, 16 g ai/ha, greenhouse 10 days, 0 no effect, 100 complete control
smiles,measurement,setting,value
C=CC1(C(=O)NC2CC(C(=O)OC)C2)CN(c2cc(F)cc(F)c2)C(=O)O1 (stereo not shown) [Compound 173],Barnyardgrass plant response rating,"[1]; 16 g ai/ha, 0 to 100 scale",40
same,Barnyardgrass plant response rating (0-100),[1]; [28],100
same,Blackgrass plant response rating,"[2]; 16 g ai/ha, 0 to 100 scale",90
same,Blackgrass plant response rating (0-100),[2]; [28],90
same,Corn plant response rating,"corn (Zea mays) [3]; 16 g ai/ha, 0 to 100 scale",50
same,Corn plant response rating (0-100),corn (Zea mays) [3]; [28],90
same,"Foxtail, Green plant response rating","[4]; 16 g ai/ha, 0 to 100 scale",90
same,"Foxtail, Green plant response rating (0-100)",[4]; [28],100
same,Kochia plant response rating,"kochia (Bassia scoparia) [5]; 16 g ai/ha, 0 to 100 scale",10
same,Kochia plant response rating (0-100),kochia (Bassia scoparia) [5]; [28],80
same,"Oat, Wild plant response rating","[6]; 16 g ai/ha, 0 to 100 scale",70
same,"Oat, Wild plant response rating (0-100)",[6]; [28],90
same,"Pigweed, Palmer plant response rating","[7]; 16 g ai/ha, 0 to 100 scale",20
same,"Pigweed, Palmer plant response rating (0-100)",[7]; [28],90
same,Ragweed plant response rating,"[8]; 16 g ai/ha, 0 to 100 scale",0
same,Ragweed plant response rating (0-100),[8]; [28],0
same,"Ryegrass, Italian plant response rating","[9]; 16 g ai/ha, 0 to 100 scale",80
same,"Ryegrass, Italian plant response rating (0-100)",[9]; [28],90
same,Soybean plant response rating,"soybean (Glycine max) [10]; 16 g ai/ha, 0 to 100 scale",30
same,Soybean plant response rating (0-100),soybean (Glycine max) [10]; [28],70
same,Wheat plant response rating,"[11]; 16 g ai/ha, 0 to 100 scale",90
same,Wheat plant response rating (0-100),[11]; [28],100
same,Barnyardgrass plant response rating (0-100),[12]; [29],90
same,Barnyardgrass plant response rating (0 to 100 scale),[12]; [30],80
same,Blackgrass plant response rating (0-100),[13]; [29],90
same,Blackgrass plant response rating (0 to 100 scale),[13]; [30],90
same,Corn plant response rating (0-100),corn (Zea mays) [14]; [29],100
same,Corn plant response rating (0 to 100 scale),corn (Zea mays) [14]; [30],100
same,Galium plant response rating (0-100),[15]; [29],80
same,Galium plant response rating (0 to 100 scale),[15]; [30],80
same,"Foxtail, Green plant response rating (0-100)",[16]; [29],90
same,"Foxtail, Green plant response rating (0 to 100 scale)",[16]; [30],90
same,Horseweed plant response rating (0-100),[17]; [29],50
same,Horseweed plant response rating (0 to 100 scale),[17]; [30],0
same,Kochia plant response rating (0-100),kochia (Bassia scoparia) [18]; [29],90
same,Kochia plant response rating (0 to 100 scale),kochia (Bassia scoparia) [18]; [30],90
same,"Oat, Wild plant response rating (0-100)",[19]; [29],90
same,"Oat, Wild plant response rating (0 to 100 scale)",[19]; [30],90
same,"Pigweed, Palmer plant response rating (0-100)",[20]; [29],90
same,"Pigweed, Palmer plant response rating (0 to 100 scale)",[20]; [30],90
same,Ragweed plant response rating (0-100),[21]; [29],80
same,Ragweed plant response rating (0 to 100 scale),[21]; [30],0
same,"Ryegrass, Italian plant response rating (0-100)",[22]; [29],90
same,"Ryegrass, Italian plant response rating (0 to 100 scale)",[22]; [30],80
same,Soybean plant response rating (0-100),soybean (Glycine max) [23]; [29],50
same,Soybean plant response rating (0 to 100 scale),soybean (Glycine max) [23]; [30],50
same,Wheat plant response rating (0-100),[24]; [29],90
same,Wheat plant response rating (0 to 100 scale),[24]; [30],90
same,"Plant response rating, Barnyardgrass (0 to 100 scale, 0 is no effect and 100 is complete control)",[25],90
same,"Plant response rating, Ducksalad (0 to 100 scale, 0 is no effect and 100 is complete control)",[26],95
same,"Plant response rating, Rice (0 to 100 scale, 0 is no effect and 100 is complete control)",rice (Oryza sativa),75
same,"Plant response rating, Sedge, Umbrella (0 to 100 scale, 0 is no effect and 100 is complete control)",[27],100
